The text below walks through data of US8026211B2, “Methods and formulations for increasing intestinal function” (Technion Research & Development Foundation Ltd., priority 2004, dated 2011).

Assay [1] concerns ischemia-reperfusion (IR) injury in rats. The experiment in a line: Rat ischemia-reperfusion injury: survival and intestinal mucosal parameters (bowel and mucosal weight, DNA, protein). It is filed as in vivo. Here is the method:
Animals: Animals were obtained from the Rappaport Faculty of Medicine (Technion, Haifa, Israel). Male rats weighing 240-260 g were kept in individual stainless steel cages at constant temperature and humidity, and a 12-hour light-dark cycle was maintained. Rats were fasted 12 hours prior to the experiment with free access to water.
(§1) Surgical procedure: Following overnight fasting, the animals were anesthetized with intraperitoneal injection of pentobarbital (IP 40 mg/kg). Using sterile techniques, the abdomen was opened using a midline incision. […] IR underwent laparotomy, mobilization and occlusion of SMA and portal vein by vascular clamp for 30 minutes followed by a reperfusion period of 24 hours. Before closure of the abdomen, the rats were resuscitated with a 3-ml intraperitoneal injection of warm 0.9% saline. For all operations, the abdominal cavity was closed in two layers with a running suture of Dexon “S” Polyglycolic Acid 3/0. Rats were allowed free access to water and food. Twenty-four hours later, the rats were anesthetized with intraperitoneal pentobarbital (75 mg/kg) and were sacrificed by open pneumothorax.
Intestinal Mucosal Parameters: The small intestine from the pylorus to the ileo-cecal valve was removed and divided into two segments: proximal jejunum and distal ileum. The intestine was split on the antimesenteric border, washed with cold saline, dried, and each segment was weighed. The mucosa was scraped from the underlying tissue with a glass slide and weighed. Bowel and mucosal weights were calculated as mg/cm bowel length/100 g body weight. Mucosal samples were homogenized with TRIzol reagent (Rhenium LTD, Jerusalem). DNA and protein were extracted by the method of Chomczynski [BioTechniques. 15:532, 1993] and were expressed as micrograms per centimeter of bowel per 100 g of body weight. In brief, 100 mg tissue was mixed with 1 ml of TRIzol reagent and homogenized for 2 min. Following a three minute incubation period and centrifugation the contents separated into three phases. DNA was isolated from the interphase using ethanol, washed with sodium citrate and was stabilised with 75% ethanol. Protein was isolated from the lower phase using isopropyl alcohol, washed with guanidine hydrochloride, and stabilised with 100% ethanol. Quantitation of DNA was performed with a spectrophotomer. Concentration of the final protein concentration was detected using Bio-Rad Protein Assay technique.
Statistical analysis: All data are given as mean±SD. Differences between experimental groups were tested for statistical significance (p<0.05) using the nonparametric Kruskal-Wallis ANOVA test, followed by the corrected Mann-Whitney test.

The next assay concerns infants with SBS. Nature of the assay: Oral insulin supplementation in infants with SBS (clinical evaluation). It is filed as in vivo, human. An excerpt: 1. Infants with less than 30 cm of small intestine (with ileo-cecal valve intact).
2. Infants with less than 40 cm without ileo-cecal valve.
3. Infants and children younger than 10 years of age, with SBS who are […] nutrition dependent and are not expected to be weaned of […] nutrition
Exclusion criteria: Infants in an unstable condition such as sepsis, acute gastroenteritis, pneumonia.
Dosage: 1 unit of insulin (Actrapid, Novonordisk, Denmark)/kg body weight per dose×4/day (every 6 hours) was administered for 28 days. Insulin was administered every six hours. Insulin will be provided as 1 u/ml of 0.45 NaCl orally.
Glucose monitoring: Following the first insulin dose, blood glucose levels were measured, immediately prior to the first and second meal following the first dose of insulin. Measurements were repeated for the first three days following supplementation and then weekly (days 7, 14, 21 and 28)
The clinical evaluation of the patients' conditions included the following parameters:
1. Weight, length, head circumference, MAC (mid arm circumference), TSF (triceps skin fold)—weekly
3. […] intake of calories, carbohydrates, lipids
4. Blood concentration levels of glucose, albumin, ALT, AST, GGT, ALP, total cholesterol, triglycerides (fasting), HDL-cholesterol, insulin (fasting, before insulin administration)
5. Blood amino acid levels
6. Insulin antibodies. 1 ml of serum was removed prior to treatment and at day 28 following treatment. The samples were frozen at −70° C. and sent, on dry ice, to Division of Pediatric Gastroenterology and Nutrition, Meyer Children's Hospital of Haifa, Bat-Galim 31096, Haifa for analysis.

Assay [2] concerns jejunal and ileal crypt cells. Nature of the assay: Rat ischemia-reperfusion injury: crypt cell proliferation (5-BrdU). It counts as in vivo. Particulars: IR rats, oral insulin, p<0.05. How it is done:
as §1
Enterocyte proliferation and apoptosis: Crypt cell proliferation was assessed using 5-bromodeoxyuridine (5-BrdU). Standard BrdU labeling reagent (Zymed Laboratories, Inc, San Francisco, Calif.) was injected intraperitoneally at a concentration of 1 ml/100 g body weight 2 hours prior to sacrifice. […] An index of proliferation was determined as the ratio of crypt cells staining positively for BrdU per 10 crypts.

The subject of assay [3] is ischemia-reperfusion (IR) injury in rats. The experiment in a line: Rat ischemia-reperfusion injury: intestinal histology (villus height, crypt depth, Park's injury grade). It counts as in vivo. How it is done: as §1
Intestinal Histology: Intestinal samples from the proximal jejunum and distal ileum were fixed in 10% formalin, dehydrated in progressive concentrations of ethanol, cleared in xylene, and embedded in paraffin wax. Deparaffinized […] sections were stained with haematoxylin and eosin. Ten villi and crypts were selected for the microscopic analysis, using a 10×4 magnifying lens. Histological images were loaded on a 760×570 pixels resolution buffer using a computerized image analysis system composed of a trichip RGB video-camera (Sony, Japan), installed on a light microscope (Zeiss, Germany) and attached to an IBM compatible personal computer (Pentium III, MMX, 450 mhz, 125 MB RAM), equipped with a frame grabber. […] The villus height and crypt depth were measured using the Image Pro Plus 4 image analysis software (Media Cybernetics, Baltimore, Md., USA).
The degree of intestinal tissue injury was evaluated on a grading scale from 0 to 8 as described previously by Park et al., [Surgery. 107: 574, 1990]: 0—normal mucosa, 1—subepithelial space at villus tip, 2—more extended subepithelial space, 3—epithelial lifting along villus sides, 4—denuded villi, 5—loss of villus tissue, 6—crypt layer infarction, 7—transmucosal infarction, 8—transmural infarction.

The mark [4] stands for this setting: IR-INS rats, 24 h reperfusion, IR 18±3, p<0.05.
[5] abbreviates: infant with SBS, oral insulin started, within a few days after initiation.

As to insulin, in assay [1] (IR rats, insulin in drinking water (2%) 3 days prior to and 24 hours following IR), the post-operative mortality result is on record as “no effect”. The ileal mucosal weight in assay [1] (IR-INS rats, 24 h reperfusion, IR 5.9±0.6, p<0.05) turned out to be 7.3±0.4 mg/cm/100 g. The same substance registered a jejunal mucosal weight in assay [1] (IR-INS rats, 24 h reperfusion, IR 7.0±0.6, p<0.05) of 8.9±0.6 mg/cm/100 g. Also, in assay [1] (setting [4]), the “mucosal protein in ileum” value was found to be 25±2 μg/cm/100 g and the “mucosal protein in jejunum” value is 28±3 μg/cm/100 g. For the same substance, the “jejunal intestinal (bowel) weight” value in assay [1] (IR-INS rats, 24 h reperfusion, IR 20.1±0.7, p<0.05) is 23±0.8 mg/cm/100 g. For the same substance, in the assay on infants with SBS (human infants with SBS, oral insulin 1 unit/kg per dose x4/day), the stool output result was “reduced stool output”. In the assay with infants with SBS (setting [5]), the jaundice entry is recorded as “decrease in jaundice”, the “need for parenteral nutrition” value is reported as “reduced need for parenteral nutrition” and the oral feeds entry is “increase in oral feeds”. Moreover, the clinical outcome with infants with SBS (infant with SBS, three months following the addition of insulin) was “discharged from hospital, thriving and on full oral feeds”. The parenteral nutrition status entry in the assay on infants with SBS (infant with SBS, two months following the addition of oral insulin) is recorded as “parenteral nutrition was stopped”. Moreover, in assay [2] (IR 173±8), the “enterocyte proliferation index in ileum” value was 289±26 BrdU positive cells/10 crypts. Besides, in assay [2] (IR 212±18), the “enterocyte proliferation index in jejunum” value was 298±21 BrdU positive cells/10 crypts. Further, the “intestinal injury grade (Park's criteria) in jejunum and ileum” value in assay [3] (IR rats, oral insulin, vs IR-animals) is recorded as “did not significantly change”. In assay [3] (insulin treated IR rats, IR 131±7, p<0.05), this substance showed an ileal crypt depth of 219±11 μm. Besides, the jejunal crypt depth in assay [3] (insulin treated IR rats, IR 167±8, p<0.05) came out at 264±13 μm. The substance also gave an ileal villus height in assay [3] (insulin treated IR rats, IR 225±25, p<0.05) of 421±40 μm. In addition, the jejunal villus height in assay [3] (insulin treated IR rats, IR 341±29, p<0.05) was found to be 622±91 μm.
